# Measurements from patent US4140785A, “N-(benzothienopyrazol)amide antirhinoviral agents” (E. I. Du Pont de Nemours and Company, priority 1978, dated 1979).
# Where two headings read alike, the source gives them in different places.
# Tests used:
# rhinovirus = assay: In vitro activity against rhinovirus strains (overall); assay type: cell-based; conditions: preferred compounds
# Rhinovirus 998 = assay: Plaque inhibition in HeLa cells, rhinovirus 998; conditions: for Plaque counts per plate: 998, untreated 190; for MIC: Enterovirus
# Rhinovirus 1492 = assay: Plaque inhibition in HeLa cells, rhinovirus 1492; conditions: for Plaque counts per plate: 1492, untreated 255; for MIC: Enterovirus
# Rhinovirus type 3 = assay: Plaque inhibition in HeLa cells, rhinovirus type 3; conditions: for Plaque counts per plate: type 3, untreated 170; for MIC: Enterovirus
# Rhinovirus type 1A = assay: Plaque inhibition in HeLa cells, rhinovirus type 1A; conditions: for Plaque counts per plate: type 1A, untreated 211; for MIC: Enterovirus
# Rhinovirus type 14 = assay: Plaque inhibition in HeLa cells, rhinovirus type 14; conditions: for Plaque counts per plate: type 14, untreated 194; for MIC: Enterovirus
# Rhinovirus type 15 = assay: Plaque inhibition in HeLa cells, rhinovirus type 15; conditions: for Plaque counts per plate: type 15, untreated 145; for MIC: Enterovirus
# Rhinovirus type 39 = assay: Plaque inhibition in HeLa cells, rhinovirus type 39; conditions: for Plaque counts per plate: type 39, untreated 112; for MIC: Enterovirus
# Rhinovirus type 51 = assay: Plaque inhibition in HeLa cells, rhinovirus type 51; conditions: for Plaque counts per plate: type 51, untreated 118; for MIC: Enterovirus
# [1] = system: influenza A virus strains; conditions: prophylaxis and symptomatic treatment; cited from earlier work
# Rhinovirus 1425 = assay: Plaque inhibition in HeLa cells, rhinovirus 1425; conditions: Enterovirus, read-out: Minimum Inhibitory Concentration (MIC)
# Rhinovirus 1662 = assay: Plaque inhibition in HeLa cells, rhinovirus 1662; conditions: Enterovirus, read-out: Minimum Inhibitory Concentration (MIC)
# Rhinovirus 4005 = assay: Plaque inhibition in HeLa cells, rhinovirus 4005; conditions: Enterovirus, read-out: Minimum Inhibitory Concentration (MIC)
# Rhinovirus 6579 = assay: Plaque inhibition in HeLa cells, rhinovirus 6579; conditions: Enterovirus, read-out: Minimum Inhibitory Concentration (MIC)
# Rhinovirus type 2 = assay: Plaque inhibition in HeLa cells, rhinovirus type 2; conditions: Enterovirus, read-out: Minimum Inhibitory Concentration (MIC)
# Rhinovirus type 5 = assay: Plaque inhibition in HeLa cells, rhinovirus type 5; conditions: Enterovirus, read-out: Minimum Inhibitory Concentration (MIC)
# Rhinovirus type 1b = assay: Plaque inhibition in HeLa cells, rhinovirus type 1B; conditions: Enterovirus, read-out: Minimum Inhibitory Concentration (MIC)
# Rhinovirus type 13 = assay: Plaque inhibition in HeLa cells, rhinovirus type 13; conditions: Enterovirus, read-out: Minimum Inhibitory Concentration (MIC)
# Rhinovirus type 41 = assay: Plaque inhibition in HeLa cells, rhinovirus type 41; conditions: Enterovirus, read-out: Minimum Inhibitory Concentration (MIC)
# herpes simplex keratitis = conditions: topical treatment; cited from earlier work
# smallpox = conditions: cited from earlier work
# [2] = read-out: Minimum Inhibitory Concentration (MIC)
compound,measurement,setting,value
CCC(CC)(CC)C(=O)Nc1nn(C)c2c1sc1ccccc12,Level of antirhinovirus activity,rhinovirus,high level of antirhinovirus activity
same,Plaque counts per plate,Rhinovirus 998; 0.1 μg/ml,103 Plaque counts per plate
same,Plaque counts per plate,Rhinovirus 998; 0.5 μg/ml,0 Plaque counts per plate
same,Plaque counts per plate,Rhinovirus 998; 1.0 μg/ml,0 Plaque counts per plate
same,Plaque counts per plate,Rhinovirus 998; 2.0 μg/ml,0 Plaque counts per plate
same,MIC,Rhinovirus 998,0.5 µg/mL
same,Plaque counts per plate,Rhinovirus 1492; 0.1 μg/ml,140 Plaque counts per plate
same,Plaque counts per plate,Rhinovirus 1492; 0.5 μg/ml,12 Plaque counts per plate
same,Plaque counts per plate,Rhinovirus 1492; 1.0 μg/ml,0 Plaque counts per plate
same,Plaque counts per plate,Rhinovirus 1492; 2.0 μg/ml,0 Plaque counts per plate
same,MIC,Rhinovirus 1492,1 µg/mL
same,Plaque counts per plate,Rhinovirus type 3; 0.1 μg/ml,119 Plaque counts per plate
same,Plaque counts per plate,Rhinovirus type 3; 0.5 μg/ml,0 Plaque counts per plate
same,Plaque counts per plate,Rhinovirus type 3; 1.0 μg/ml,0 Plaque counts per plate
same,Plaque counts per plate,Rhinovirus type 3; 2.0 μg/ml,0 Plaque counts per plate
same,MIC,Rhinovirus type 3,0.5 µg/mL
same,Plaque counts per plate,Rhinovirus type 1A; 0.1 μg/ml,153 Plaque counts per plate
same,Plaque counts per plate,Rhinovirus type 1A; 0.5 μg/ml,60 Plaque counts per plate
same,Plaque counts per plate,Rhinovirus type 1A; 1.0 μg/ml,4 Plaque counts per plate
same,Plaque counts per plate,Rhinovirus type 1A; 2.0 μg/ml,0 Plaque counts per plate
same,MIC,Rhinovirus type 1A,2 µg/mL
same,Plaque counts per plate,Rhinovirus type 14; 0.1 μg/ml,125 Plaque counts per plate
same,Plaque counts per plate,Rhinovirus type 14; 0.5 μg/ml,20 Plaque counts per plate
same,Plaque counts per plate,Rhinovirus type 14; 1.0 μg/ml,0 Plaque counts per plate
same,Plaque counts per plate,Rhinovirus type 14; 2.0 μg/ml,0 Plaque counts per plate
same,MIC,Rhinovirus type 14,1 µg/mL
same,Plaque counts per plate,Rhinovirus type 15; 0.1 μg/ml,61 Plaque counts per plate
same,Plaque counts per plate,Rhinovirus type 15; 0.5 μg/ml,0 Plaque counts per plate
same,Plaque counts per plate,Rhinovirus type 15; 1.0 μg/ml,0 Plaque counts per plate
same,Plaque counts per plate,Rhinovirus type 15; 2.0 μg/ml,0 Plaque counts per plate
same,MIC,Rhinovirus type 15,0.5 µg/mL
same,Plaque counts per plate,Rhinovirus type 39; 0.1 μg/ml,65 Plaque counts per plate
same,Plaque counts per plate,Rhinovirus type 39; 0.5 μg/ml,4 Plaque counts per plate
same,Plaque counts per plate,Rhinovirus type 39; 1.0 μg/ml,0 Plaque counts per plate
same,Plaque counts per plate,Rhinovirus type 39; 2.0 μg/ml,0 Plaque counts per plate
same,MIC,Rhinovirus type 39,1 µg/mL
same,Plaque counts per plate,Rhinovirus type 51; 0.1 μg/ml,211 Plaque counts per plate
same,Plaque counts per plate,Rhinovirus type 51; 0.5 μg/ml,28 Plaque counts per plate
same,Plaque counts per plate,Rhinovirus type 51; 1.0 μg/ml,0 Plaque counts per plate
same,Plaque counts per plate,Rhinovirus type 51; 2.0 μg/ml,0 Plaque counts per plate
same,MIC,Rhinovirus type 51,1 µg/mL
Cl.NC12CC3CC(CC(C3)C1)C2 [1-aminoadamantane hydrochloride],Effectiveness against illness caused by influenza A virus,[1],effective for the prophylaxis and symptomatic treatment of illness caused by influenza A virus strains
"Cn1nc(NC(=O)C(C)(C)C)c2sc3ccccc3c21 [2,2-dimethyl-N-(1-methyl-1H-(1)benzothieno[3,2-c]pyrazol-3-yl)propanamide]",Level of antirhinovirus activity,rhinovirus,high level of antirhinovirus activity
Cn1nc(NC(=O)CC2CCCC2)c2sc3ccccc3c21 [Example 62],MIC,Rhinovirus 998; [2],2 µg/mL
same,MIC,Rhinovirus 1425,2 µg/mL
same,MIC,Rhinovirus 1492; [2],2 µg/mL
same,MIC,Rhinovirus 1662,8 µg/mL
same,MIC,Rhinovirus 4005,2 µg/mL
same,MIC,Rhinovirus 6579,2 µg/mL
same,MIC,Rhinovirus type 2,2 µg/mL
same,MIC,Rhinovirus type 3; [2],4 µg/mL
same,MIC,Rhinovirus type 5,2 µg/mL
same,MIC,Rhinovirus type 1A; [2],6 µg/mL
same,MIC,Rhinovirus type 1b,2 µg/mL
same,MIC,Rhinovirus type 13,2 µg/mL
same,MIC,Rhinovirus type 14; [2],6 µg/mL
same,MIC,Rhinovirus type 15; [2],5 µg/mL
same,MIC,Rhinovirus type 39; [2],2 µg/mL
same,MIC,Rhinovirus type 41,2 µg/mL
same,MIC,Rhinovirus type 51; [2],8 µg/mL
"CCC(CC)C(=O)Nc1nn(C)c2c1sc1ccccc12 [Example 63, 2-ethyl-N-(1-methyl-1H-(1)benzothieno[3,2-c]pyrazol-3-yl)butanamide]",Level of antirhinovirus activity,rhinovirus,high level of antirhinovirus activity
same,MIC,Rhinovirus 998; [2],1 µg/mL
same,MIC,Rhinovirus 1425,2 µg/mL
same,MIC,Rhinovirus 1492; [2],1 µg/mL
same,MIC,Rhinovirus 1662,1 µg/mL
same,MIC,Rhinovirus 4005,2 µg/mL
same,MIC,Rhinovirus 6579,2 µg/mL
same,MIC,Rhinovirus type 2,2 µg/mL
same,MIC,Rhinovirus type 3; [2],0.5 µg/mL
same,MIC,Rhinovirus type 5,2 µg/mL
same,MIC,Rhinovirus type 1A; [2],1 µg/mL
same,MIC,Rhinovirus type 1b,2 µg/mL
same,MIC,Rhinovirus type 13,2 µg/mL
same,MIC,Rhinovirus type 14; [2],1 µg/mL
same,MIC,Rhinovirus type 15; [2],0.5 µg/mL
same,MIC,Rhinovirus type 39; [2],0.5 µg/mL
same,MIC,Rhinovirus type 41,2 µg/mL
same,MIC,Rhinovirus type 51; [2],1 µg/mL
CC(C)CC(=O)Nc1nn(C)c2c1sc1ccccc12 [Example 64],MIC,Rhinovirus 998; [2],1 µg/mL
same,MIC,Rhinovirus 1425,4 µg/mL
same,MIC,Rhinovirus 1492; [2],2 µg/mL
same,MIC,Rhinovirus 1662,2 µg/mL
same,MIC,Rhinovirus 4005,2 µg/mL
same,MIC,Rhinovirus 6579,2 µg/mL
same,MIC,Rhinovirus type 2,2 µg/mL
same,MIC,Rhinovirus type 3; [2],1 µg/mL
same,MIC,Rhinovirus type 5,2 µg/mL
same,MIC,Rhinovirus type 1A; [2],1 µg/mL
same,MIC,Rhinovirus type 1b,2 µg/mL
same,MIC,Rhinovirus type 13,2 µg/mL
same,MIC,Rhinovirus type 14; [2],1 µg/mL
same,MIC,Rhinovirus type 15; [2],1 µg/mL
same,MIC,Rhinovirus type 39; [2],1 µg/mL
same,MIC,Rhinovirus type 41,2 µg/mL
same,MIC,Rhinovirus type 51; [2],2 µg/mL
"CC(=O)Nc1nn(C)c2c1sc1ccccc12 [Example 65, N-(1-methyl-1H-(1)benzothieno[3,2-c]pyrazol-3-yl)-acetamide]",MIC,Rhinovirus 998; [2],8 µg/mL
same,MIC,Rhinovirus 1425,2 µg/mL
same,MIC,Rhinovirus 1492; [2],8 µg/mL
same,MIC,Rhinovirus 1662,10 µg/mL
same,MIC,Rhinovirus 4005,2 µg/mL
same,MIC,Rhinovirus 6579,5 µg/mL
same,MIC,Rhinovirus type 2,4 µg/mL
same,MIC,Rhinovirus type 3; [2],4 µg/mL
same,MIC,Rhinovirus type 5,4 µg/mL
same,MIC,Rhinovirus type 1A; [2],8 µg/mL
same,MIC,Rhinovirus type 1b,6 µg/mL
same,MIC,Rhinovirus type 13,5 µg/mL
same,MIC,Rhinovirus type 14; [2],8 µg/mL
same,MIC,Rhinovirus type 15; [2],5 µg/mL
same,MIC,Rhinovirus type 39; [2],8 µg/mL
same,MIC,Rhinovirus type 41,2 µg/mL
same,MIC,Rhinovirus type 51; [2],8 µg/mL
Cn1nc(NC(=O)c2cccnc2)c2sc3ccccc3c21 [Example 66],MIC,Rhinovirus 998; [2],2 µg/mL
same,MIC,Rhinovirus 1425,2 µg/mL
same,MIC,Rhinovirus 1492; [2],6 µg/mL
same,MIC,Rhinovirus 1662,8 µg/mL
same,MIC,Rhinovirus 4005,2 µg/mL
same,MIC,Rhinovirus 6579,2 µg/mL
same,MIC,Rhinovirus type 2,2 µg/mL
same,MIC,Rhinovirus type 3; [2],6 µg/mL
same,MIC,Rhinovirus type 5,2 µg/mL
same,MIC,Rhinovirus type 1A; [2],5 µg/mL
same,MIC,Rhinovirus type 1b,2 µg/mL
same,MIC,Rhinovirus type 13,2 µg/mL
same,MIC,Rhinovirus type 14; [2],8 µg/mL
same,MIC,Rhinovirus type 15; [2],4 µg/mL
same,MIC,Rhinovirus type 39; [2],2 µg/mL
same,MIC,Rhinovirus type 41,2 µg/mL
same,MIC,Rhinovirus type 51; [2],6 µg/mL
O=c1[nH]c(=O)n([C@H]2C[C@H](O)[C@@H](CO)O2)cc1I [Idoxuridine],Effectiveness in herpes simplex keratitis,herpes simplex keratitis,effective for the topical treatment of herpes simplex keratitis
CN1C(=O)/C(=N\NC(N)=S)c2ccccc21 [Methisazone],Effectiveness for prevention of smallpox,smallpox,effective for the prevention of smallpox
Nc1ncnc2c1ncn2[C@@H]1O[C@H](CO)[C@@H](O)[C@@H]1O [adenine arabinoside],Effectiveness in herpes simplex keratitis,herpes simplex keratitis,effective for the topical treatment of herpes simplex keratitis
